Legend:
Experiment in all cases: Affinity chromatography with NFX-beads and mass spectrometry
Type in all cases: binding
Settings in all cases: spectral counts, NFX coupled beads vs beads alone, human fibroblast extracts
[1] = molecular target: T1, Mitogen-activated protein kinase (MAP4K4) (Homo sapiens, UniProt O95819)
T1 construct: Protein extracts from human fibroblasts were incubated with magnetic beads; endogenous in cells; host or cells: human fibroblast lysate
Protocol: (§1) Fibroblasts were trypsinized and washed with PBS 1× then incubated in lysis buffer on ice during 20 minutes (Lysis buffer: Tris-HCl pH 7.5 50 mM, EDTA 2 mM, Triton X-100 0.1% supplemented with anti-protease and anti-phosphatase (Complete-Mini™—Roche). After centrifugation 15 minutes, 13 000 rpm at 4° C., supernatant was conserved and the protein concentration was determined using the Pierce BCA assay kit (Thermo Fisher Scientific).
(§2) 10 μL of magnetic beads and NFX-beads were washed three times in Bead buffer before to be resuspended 100 μL of Bead buffer (Bead buffer: Tris-HCl pH 7.5 50 mM, NaCl 150 mM, Triton X-100 0.1%, supplemented with anti-protease and anti-phosphatase (Complete-Mini™—Roche)) thanks to a magnetic rack (DynaMag-2 Ref 12321D Life Technologies). 800 μg of proteins were mixed with 100 μL of diluted beads and the final volume was set to 800 μL with Bead buffer. The proteins and the beads were incubated 30 minutes with rotation in a cold room. Using a magnetic rack, the beads were separated from the protein extract and washed three time with Bead buffer before to be resuspended in 75 μL of Laemmli2X. Laemmli with beads was put 5 minutes at 95° C. to eluate the proteins and the beads were discarded using a magnetic rack. 35 μL of the eluted proteins were subjected to SDS-PAGE and silver coloration (ProteoSilver™ Silver Stain Kit—Sigma Aldrich). Bands of interest were extracted from the gel and subjected to mass spectrometry.
(§3) Mass spectrometric identification and quantification of the pulled down proteins were performed as previously described (Shrivastava et al., EMBO, 2019, 38:e99871). The raw data were cleaned using the following pathway. First, only the proteins found to interact with the NFX coupled beads in the three replicates were kept for further analysis. […] The final proteins were then classified based on the fold chance and the p-value.
(§4) Identification of the NFX intracellular targets is a crucial step in understanding its mechanisms of action and to be able to improve its efficiency on a rational basis. To purify NFX-binding proteins, affinity chromatography purification was performed using magnetic beads. Protein extracts from human fibroblasts were incubated with magnetic beads alone or to which NFX has been covalently coupled (Scheme 1). Eluted fractions were subjected to SDS-PAGE electrophoresis and silver staining (FIG. 9A). The pattern was clearly different between eluted proteins from NFX-beads compared to those eluted form beads alone with 13 bands either appeared or were of a higher intensity with the NFX-beads (FIG. 9B). Excised bands were subjected to proteolytic digestion and mass spectrometry.

[2] = molecular target: T2, E3 ubiquitin-protein ligase DTX3L (Homo sapiens, UniProt Q8TDB6)
T2 construct: Protein extracts from human fibroblasts were incubated with magnetic beads; endogenous in cells; host or cells: human fibroblast lysate
Protocol: as §1, §2, §3, §4

[3] = molecular target: T3, Kinesin-1 heavy chain (KIF5B) (Homo sapiens, UniProt P33176)
T3 construct: Protein extracts from human fibroblasts were incubated with magnetic beads; endogenous in cells; host or cells: human fibroblast lysate
T3 sequence (P33176 1-963): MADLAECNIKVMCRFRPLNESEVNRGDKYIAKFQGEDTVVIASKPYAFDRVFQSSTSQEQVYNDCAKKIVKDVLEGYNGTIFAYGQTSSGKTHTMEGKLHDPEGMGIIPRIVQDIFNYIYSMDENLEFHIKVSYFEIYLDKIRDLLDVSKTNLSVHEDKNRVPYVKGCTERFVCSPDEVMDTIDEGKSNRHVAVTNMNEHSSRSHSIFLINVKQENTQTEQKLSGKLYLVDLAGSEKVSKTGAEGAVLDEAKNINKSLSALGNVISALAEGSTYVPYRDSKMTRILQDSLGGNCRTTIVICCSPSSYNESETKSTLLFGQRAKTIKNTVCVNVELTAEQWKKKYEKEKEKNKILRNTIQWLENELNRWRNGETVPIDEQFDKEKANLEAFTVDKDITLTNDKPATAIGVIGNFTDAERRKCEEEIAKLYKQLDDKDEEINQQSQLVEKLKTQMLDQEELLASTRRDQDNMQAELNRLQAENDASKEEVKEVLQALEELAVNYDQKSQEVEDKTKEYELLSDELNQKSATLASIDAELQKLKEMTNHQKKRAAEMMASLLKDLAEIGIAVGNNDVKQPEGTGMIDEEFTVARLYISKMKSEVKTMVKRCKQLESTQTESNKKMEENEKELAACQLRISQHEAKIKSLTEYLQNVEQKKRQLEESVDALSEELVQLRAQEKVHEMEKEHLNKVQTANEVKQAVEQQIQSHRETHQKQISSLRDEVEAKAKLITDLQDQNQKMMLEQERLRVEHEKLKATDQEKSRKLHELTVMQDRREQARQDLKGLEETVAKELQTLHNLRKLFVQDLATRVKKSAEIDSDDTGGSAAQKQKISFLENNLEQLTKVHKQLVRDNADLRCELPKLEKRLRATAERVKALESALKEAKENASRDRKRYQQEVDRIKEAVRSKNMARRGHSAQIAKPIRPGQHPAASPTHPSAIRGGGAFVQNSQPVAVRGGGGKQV
Protocol: as §1, §2, §3, §4

[4] = molecular target: T4, RNA-splicing ligase RtcB homolog (RTCB) (Homo sapiens, UniProt Q9Y3I0)
T4 construct: Protein extracts from human fibroblasts were incubated with magnetic beads; endogenous in cells; host or cells: human fibroblast lysate
T4 sequence (Q9Y3I0 1-505): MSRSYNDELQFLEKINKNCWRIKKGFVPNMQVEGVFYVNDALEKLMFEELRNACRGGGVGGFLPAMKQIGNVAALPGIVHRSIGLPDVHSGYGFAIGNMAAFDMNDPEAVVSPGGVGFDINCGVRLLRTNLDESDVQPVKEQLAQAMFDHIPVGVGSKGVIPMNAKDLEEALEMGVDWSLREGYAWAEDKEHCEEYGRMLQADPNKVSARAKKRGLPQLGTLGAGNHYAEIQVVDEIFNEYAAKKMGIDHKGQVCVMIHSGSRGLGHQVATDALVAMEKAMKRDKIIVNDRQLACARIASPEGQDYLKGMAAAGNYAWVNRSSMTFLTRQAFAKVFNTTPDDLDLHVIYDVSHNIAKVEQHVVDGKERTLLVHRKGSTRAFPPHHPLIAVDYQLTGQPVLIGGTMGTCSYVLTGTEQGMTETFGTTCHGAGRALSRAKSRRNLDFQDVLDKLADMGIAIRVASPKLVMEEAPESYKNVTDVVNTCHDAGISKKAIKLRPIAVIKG
Protocol: as §1, §2, §3, §4

[5] = molecular target: T5, Calcium/calmodulin-dependent protein kinase type II subunit delta (CAMK2D) (Homo sapiens, UniProt Q13557)
T5 construct: Protein extracts from human fibroblasts were incubated with magnetic beads; endogenous in cells; host or cells: human fibroblast lysate
T5 sequence (Q13557 whole entry): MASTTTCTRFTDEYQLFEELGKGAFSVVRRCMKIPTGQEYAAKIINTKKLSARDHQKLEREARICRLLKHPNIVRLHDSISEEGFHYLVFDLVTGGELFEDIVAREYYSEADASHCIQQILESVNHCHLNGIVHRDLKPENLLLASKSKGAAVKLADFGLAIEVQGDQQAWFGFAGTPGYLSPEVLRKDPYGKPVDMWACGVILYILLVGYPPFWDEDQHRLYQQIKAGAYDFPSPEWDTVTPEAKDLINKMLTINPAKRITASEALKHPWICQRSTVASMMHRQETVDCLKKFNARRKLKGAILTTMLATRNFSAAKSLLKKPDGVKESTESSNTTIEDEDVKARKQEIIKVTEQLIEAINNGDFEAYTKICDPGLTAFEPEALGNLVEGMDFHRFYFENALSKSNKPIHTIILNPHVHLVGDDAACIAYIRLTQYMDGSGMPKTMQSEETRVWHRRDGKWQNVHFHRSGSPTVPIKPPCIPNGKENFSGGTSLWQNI
Protocol: as §1, §2, §3, §4

T1 sequence (O95819 whole entry): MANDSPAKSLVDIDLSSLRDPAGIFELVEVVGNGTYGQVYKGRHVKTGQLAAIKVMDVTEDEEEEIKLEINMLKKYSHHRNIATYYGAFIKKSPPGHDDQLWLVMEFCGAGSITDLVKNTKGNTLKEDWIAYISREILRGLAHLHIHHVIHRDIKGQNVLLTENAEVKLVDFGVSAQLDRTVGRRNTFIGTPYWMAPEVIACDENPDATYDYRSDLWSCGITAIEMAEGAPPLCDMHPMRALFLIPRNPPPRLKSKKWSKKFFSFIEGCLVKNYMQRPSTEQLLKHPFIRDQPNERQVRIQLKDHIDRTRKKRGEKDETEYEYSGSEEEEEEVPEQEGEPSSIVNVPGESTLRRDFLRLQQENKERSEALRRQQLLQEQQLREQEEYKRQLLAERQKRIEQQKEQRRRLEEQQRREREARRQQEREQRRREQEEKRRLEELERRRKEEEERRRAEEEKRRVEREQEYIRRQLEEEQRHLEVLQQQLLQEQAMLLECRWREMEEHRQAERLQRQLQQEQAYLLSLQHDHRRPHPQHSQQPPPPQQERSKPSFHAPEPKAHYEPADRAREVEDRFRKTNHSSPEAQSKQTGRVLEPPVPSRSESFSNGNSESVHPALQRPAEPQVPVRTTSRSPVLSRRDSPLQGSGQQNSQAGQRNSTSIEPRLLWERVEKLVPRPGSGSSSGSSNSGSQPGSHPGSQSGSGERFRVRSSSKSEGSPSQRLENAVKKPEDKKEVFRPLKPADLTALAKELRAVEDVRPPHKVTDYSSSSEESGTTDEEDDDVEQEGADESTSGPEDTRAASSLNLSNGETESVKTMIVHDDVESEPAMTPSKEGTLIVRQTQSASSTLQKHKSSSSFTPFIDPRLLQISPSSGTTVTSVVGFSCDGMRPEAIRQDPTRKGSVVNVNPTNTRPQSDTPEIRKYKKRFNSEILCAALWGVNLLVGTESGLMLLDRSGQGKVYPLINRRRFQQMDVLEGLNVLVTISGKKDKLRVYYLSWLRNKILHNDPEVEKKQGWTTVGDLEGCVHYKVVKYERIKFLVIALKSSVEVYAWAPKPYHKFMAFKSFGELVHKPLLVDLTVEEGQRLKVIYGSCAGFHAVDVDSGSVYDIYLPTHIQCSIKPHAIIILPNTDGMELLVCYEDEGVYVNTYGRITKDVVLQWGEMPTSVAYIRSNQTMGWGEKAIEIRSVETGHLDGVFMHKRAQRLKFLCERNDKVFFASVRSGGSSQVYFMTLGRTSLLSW

Fold change [1]: 29.76 | Fold change [2]: 386.67 | Fold change [3]: 121.67 | Fold change [4]: 40.98 | Fold change [5]: 803.33
SMILES: O=C(N/N=C/c1ccc([N+](=O)[O-])o1)c1ccc(O)cc1 [NFX, (E)-4-hydroxy-N′-((5-nitrofuran-2-yl)methylene)benzohydrazide]

Reference: patent publication US20250025439A1, “DERIVATIVES OF NIFUROXAZIDE FOR USE IN THE TREATMENT OF MITOCHONDRIAL DISORDERS AND NEURODEGENERATIVE DISEASES” (priority 2021, published 2025)
